Holding throughout (type): cell-based
Experiment [1] deals with HUV-EC-C cells (human umbilical vein endothelial cells). Briefly: HUV-EC-C Assay, VEGF-stimulated [3H] thymidine incorporation. The settings on record: Mitogenesis in Endothelial Cells.
Experiment [2] shares this test system. Briefly: HUV-EC-C Assay, a-FGF (ECGF)-stimulated [3H] thymidine incorporation. The settings on record: Mitogenesis in Endothelial Cells. As for the experimental part: The following protocol may also be used to measure the composition's activity:
1. […] After cells have detached from the flask, add an equal volume of assay medium and transfer to a 50 ml sterile centrifuge tube (Fisher Scientific; catalogue no. 05-539-6).
2. Wash the cells with about 35 ml assay medium in the 50 ml sterile centrifuge, tube by adding the assay medium, centrifuge for 10 minutes at approximately 200× g, aspirate the supernatant, and resuspend with 35 ml D-PBS. Repeat the wash two more times with D-PBS, resuspend the cells in about 1 ml assay medium/15 cm^2 of tissue culture flask. Assay medium consists of F12K medium (Gibco BRL; catalogue no. 21127-014)+0.5% heat-inactivated fetal bovine serum. Count the cells with a Coulter Counter.RTM.v Coulter Electronics, Inc.) and add assay medium to the cells to obtain a concentration of 0.8-1.0×10^5 cells/ml.
3. Add cells to 96-well flat-bottom plates at 100 μl/well or 0.8-1.0×10^4 cells/well; incubate about 24 h at 37° C., 5% CO2.
1. Make up two-fold drug titrations in separate 96-well plates, generally 50 μM on down to 0 μM. Use the same assay medium as mentioned in day 0, step 2 above. Titrations are made by adding […] of drug at 200 μM (4× the final well concentration) to the top well of a particular plate column. Since the stock drug concentration is usually 20 mM in DMSO, the 200 μM drug concentration contains 2% DMSO. Therefore, diluent made up to 2% DMSO in assay medium (F12K+0.5% fetal bovine serum) is used as diluent for the drug titrations in order to dilute the drug but keep the DMSO concentration constant. Add this diluent to the remaining wells in the column at 60 μl/well. Take 60 μl from the 120 μl of 200 μM drug dilution in the top well of the column and mix with the 60 μl in the second well of the column. Take 60 μl from this well and mix with the 60 μl in the third well of the column, and so on until two-fold titrations are completed. When the next-to-the-last well is mixed, take 60 μl of the 120 μl in this well and discard it. Leave the last well with 60 μl of DMSO/media diluent as a non-drug-containing control. Make 9 columns of titrated drug, enough for triplicate wells each for 1) VEGF (obtained from Pepro Tech Inc., catalogue no. 100-200, 2) endothelial cell growth factor (ECGF) (also known as acidic fibroblast growth factor, or aFGF) (obtained from Boehringer Mannheim Biochemica, catalogue no. 1439 600), and assay media control. ECGF comes as a preparation with sodium heparin.
2. Transfer 50 μl/well of the drug dilutions to the 96-well assay plates containing the 0.8-1.0×10^4 cells/100 μl/well of the HUV-EC-C cells from day 0 and […] incubate ~2 h at 37° C., 5% CO2.
3. In triplicate, add 50 μl/well of 80 ng/ml VEGF, 20 ng/ml ECGF, or media control to each drug condition. As with the drugs, the growth factor concentrations are 4× the desired final concentration. Use the assay media from day 0 step 2 to make the concentrations of growth factors. Incubate approximately 24 hours at 37° C., 5% CO2. Each well will have 50 μl drug dilution, 50 μl growth factor or media, and 100 ul cells,=200 ul/well total. Thus the 4× concentrations of drugs and growth factors become 1× once everything has been added to the wells.
1. Add ^3H-thymidine (Amersham; catalogue no. TRK-686) at 1 μCi/well (10 μl/well of 100 μCi/ml solution made up in RPMI media+10% heat-inactivated fetal bovine serum) and incubate about 24 h at 37° C., 5% CO2.
Note: ^3H-thymidine is made up in RPMI media because all of the other applications for which we use the ^3H-thymidine involve experiments done in RPMI. The media difference at this step is probably not significant. RPMI was obtained from Gibco BRL, catalogue no. 11875-051.
1. Freeze plates overnight at −20° C.
1. Thaw plates and harvest with a 96-well plate harvester (Tomtec Harvester 96.RTM.) onto filter mats (Wallac; catalogue no. 1205-401); read counts on a Wallac Betaplate™ liquid scintillation counter.

The test system of another experiment is FGFR. Briefly: FGF ligand-induced BrdU incorporation, mitogenesis in 3T3/EGFR cells.

The results in this text go back to patent US20030119895A1, “Methods using a combination of a 3-heteroaryl-2-indolinone and a cyclooxygenase-2 inhibitor for the treatment of neoplasia” (Pharmacia Corporation, priority 1998, published 2003).

Bounds are passed on as bounds.

By IC50 is commonly meant the midpoint of a concentration-inhibition curve. Low values mean greater potency, high ones weaker potency.

As to `CCOC(=O)c1c(C)[nH]c(C=C2C(=O)Nc3ccccc32)c1C` [SU5408, 3-[(2,4-Dimethyl-3-ethoxycarbonylpyrrol-5-yl)methylene]-2-indolinone], the IC50 in experiment [1] (Homo sapiens, HUVEC) was under 0.8 µM; in experiment [2] (Homo sapiens, HUVEC), 22.7 µM.
Compound `Cc1cnc(C=C2C(=O)Nc3ccccc32)s1` [SU5469, 3-[(5-Methylthiazol-2-yl)methylene]-2-indolinone] registered an IC50 in the experiment on FGFR of 15 µM.
Regarding `O=C1Nc2ccccc2C1=Cc1sccc1Br` [SU5418, 3-[(3-Bromothiene-2-yl)methylene]-2-indolinone], the IC50 in experiment [1] (Homo sapiens, HUVEC) worked out at 13.6 µM; in experiment [2] (Homo sapiens, HUVEC), 40 µM.
Take `O=C1Nc2ccccc2C1=Cc1cccn1-c1cc(Cl)cc(Cl)c1` [SU5461, 3-{[1-(3,5-Dichlorophenyl)pyrrol-2-yl]methylene}-2-indolinone]: the IC50 in experiment [1] (Homo sapiens, HUVEC) is under 0.07 µM; in experiment [2] (Homo sapiens, HUVEC), under 0.07 µM.
On to `O=C1Nc2ccccc2C1=Cc1c(Br)cnn1Cc1ccc(Cl)cc1` [SU5475, 3-[(4-Bromo-1-(4-chlorobenzyl)pyrazol-5-yl)methylene]-2-indolinone], for which the IC50 with FGFR came to 9 µM.
In the case of `COc1cccc(C=C2C(=O)Nc3ccccc32)c1OC` [SU4794, 3-(2,3-dimethoxybenzylidenyl)-2-indolinone], the IC50 came to 4.8 µM in experiment [1] (Homo sapiens, HUVEC) and 35.7 µM in experiment [2] (Homo sapiens, HUVEC).
With `Cc1cnc(C=C2C(=O)Nc3ccccc32)[nH]1` [SU5468, 3-[(5-Methylimidazol-2-yl)methylene]-2-indolinone], the IC50 in experiment [1] (Homo sapiens, HUVEC) amounted to 0.54 µM; in experiment [2] (Homo sapiens, HUVEC) it was 8.7 µM.
Consider `O=C1Nc2ccccc2C1=Cc1cccn1-c1ccc(Cl)cc1` [SU5462], for which the figures for the IC50 in experiment [1] and in experiment [2] were 0.5 µM and 0.8 µM, respectively.
In the case of `CSc1ccc(C=C2C(=O)Nc3ccccc32)s1` [SU5419, 3-[(2-Methylmercaptothien-5-yl)methylene]-2-indolinone], the midpoint of inhibition in experiment [1] (Homo sapiens, HUVEC), the IC50, lay at 0.7 µM.
In turn, `O=C1Nc2ccccc2C1=Cc1c[nH]cn1` [SU5473, 3-[(Imidazol-4-yl)methylene]-2-indolinone] came in with an IC50 in the experiment on FGFR of 50 µM.
With `O=C1Nc2ccccc2C1=Cc1cccs1` [SU5208, 3-[(Thien-2-yl)methylene]-2-indolinone], the IC50 in experiment [1] (Homo sapiens, HUVEC) worked out at 2.9 µM; in experiment [2] (Homo sapiens, HUVEC) it was 130 µM.
As to `CCOC(=O)c1c[nH]c(C=C2C(=O)Nc3ccccc32)c1C` [SU5463], the IC50 is 0.14 µM in experiment [1] (Homo sapiens, HUVEC) and 7.9 µM in experiment [2] (Homo sapiens, HUVEC).
Regarding `O=C1Nc2ccccc2C1=Cc1ccco1` [SU5429, 3-[(Furan-2-yl)methylene]-2-indolinone], 27.6 µM corresponded to half-maximal inhibition in experiment [1] (Homo sapiens, HUVEC) (IC50).
Regarding `O=C1Nc2ccccc2C1=Cc1ccc(Br)o1` [SU5438, 3-[(5-Bromofuran-2-yl)methylene]-2-indolinone], the IC50 is 39.8 µM in experiment [1] (Homo sapiens, HUVEC) and 33 µM in experiment [2] (Homo sapiens, HUVEC).
In the case of `O=C1Nc2ccccc2C1=Cc1ccc([N+](=O)[O-])o1` [SU5432, 3-[(2-Nitrofuran-5-yl)methylene]-2-indolinone], the IC50 came to 0.16 µM in experiment [1] (Homo sapiens, HUVEC) and 0.14 µM in experiment [2] (Homo sapiens, HUVEC).
In the same order, the values of `Cc1cc(C=C2C(=O)Nc3ccccc32)[nH]n1` [SU5472, 3-[(3-Methylpyrazol-5-yl)methylene]-2-indolinone] are 2 µM and 5 µM.
For `CC(=O)Nc1ccc(C=C2C(=O)Nc3ccccc32)cc1` [SU4799, 3-(4-acetamidobenzylidenyl)-2-indolinone], in experiment [1] (Homo sapiens, HUVEC), the IC50 is 19.9 µM.
As to `COc1ccc(Br)cc1C=C1C(=O)Nc2ccccc21` [SU4796, 3-(3-bromo-6-methoxybenzylidenyl)-2-indolinone], the IC50 is 30.7 µM in experiment [1] and 35.8 µM in experiment [2].
Take `O=C1Nc2ccccc2C1=Cc1ccco1` [SU4798, 3-[(furan-2-yl)methylene]-2-indolinone]: in experiment [1] (Homo sapiens, HUVEC), half-maximal inhibition (IC50) was put at 43.2 µM.
Take `CN(C)c1c(C=C2C(=O)Nc3ccccc32)cc(C=C2C(=O)Nc3ccccc32)c(N(C)C)c1C#N` [SU5218, 2,6-Di-(dimethylamino)-3,5-di-[(indolin-2-one-3-ylidenyl)methyl]-phenylcyanide]: the IC50 in experiment [1] (Homo sapiens, HUVEC) came to 2.4 µM; in experiment [2] (Homo sapiens, HUVEC), 2.7 µM.
For the compound `COc1ccccc1C=C1C(=O)Nc2ccccc21` [SU4949, 3-(2-Methoxybenzylidenyl)-2-indolinone], the IC50 in experiment [1] amounted to 3.4 µM; in experiment [2] it was 3.7 µM.
As to `O=C1Nc2ccccc2C1=Cc1ccc(F)cc1` [SU5205, 3-(4-Fluorobenzylidenyl)-2-indolinone], the IC50 in experiment [1] (Homo sapiens, HUVEC) came to 5.1 µM; in experiment [2] (Homo sapiens, HUVEC), 11.8 µM.
As for `O=C1Nc2ccccc2C1=Cc1ccc(Cl)c(Cl)c1` [SU5201, 3-(3,4-Dichlorobenzylidenyl)-2-indolinone], the IC50 in experiment [1] was 2.5 µM; in experiment [2] it was 2.3 µM.
`Cc1cc(C=C2C(=O)Nc3ccccc32)oc1C` [SU5421, 3-[(2,3-Dimethylfuran-5-yl)methylene]-2-indolinone] came in with an IC50 in experiment [1] (Homo sapiens, HUVEC) of 11.4 µM.
Turning to `CCCCN(CCCC)c1ccc(C=C2C(=O)Nc3ccccc32)cc1` [SU4979, 3-(4-Di-n-butylaminobenzylidenyl)-2-indolinone], the IC50 in experiment [1] (Homo sapiens, HUVEC) worked out at 4.4 µM; in experiment [2] (Homo sapiens, HUVEC) it was 4.9 µM.
In the same order, the values of `Cn1cccc1C=C1C(=O)Nc2ccccc21` [SU5464, 3-[(1-Methylpyrrol-2-yl)methylene]-2-indolinone] are 3.8 µM and 12.9 µM.
As for `O=C1Nc2ccccc2C1=Cc1ccc(-c2cc(C(F)(F)F)cc(C(F)(F)F)c2)o1` [SU5217], the IC50 in experiment [1] was 9.6 µM; in experiment [2], 10.5 µM.
Regarding `Cc1c(C=O)[nH]c(C=C2C(=O)Nc3ccccc32)c1C` [SU5405, 3-[(3,4-Dimethyl-2-formylpyrrole-5-yl)methylene)-2-indolinone], the IC50 in experiment [1] (Homo sapiens, HUVEC) worked out at 0.9 µM; in experiment [2] (Homo sapiens, HUVEC) it was 0.6 µM.
For the compound `CCc1c(C=C2C(=O)Nc3ccccc32)[nH]c(C(=O)O)c1C` [SU5455, 3-[(5-Carboxy-3-ethyl-4-methylpyrrol-2-yl)methylene]-2-indolinone], the IC50 in experiment [1] (Homo sapiens, HUVEC) is 20 µM; in experiment [2] (Homo sapiens, HUVEC), 20 µM.
For `O=C1Nc2ccccc2C1=Cc1ccc(I)o1` [SU5409], it took 26 µM to reach half-maximal inhibition in experiment [1] (IC50).
As for `CCOC(=O)CCc1c(C(=O)OCC)[nH]c(C=C2C(=O)Nc3ccccc32)c1CC(=O)OCC` [SU5454, 3-[(5-Ethoxycarbonyl-4-ethoxycarbonylethyl-3-ethoxycarbonylmethylpyrrol-2-yl)methylene]-2-indolinone], the half-maximal inhibitory concentration (IC50) turned out to be 3.8 µM in experiment [1] (Homo sapiens, HUVEC) and 3.4 µM in experiment [2] (Homo sapiens, HUVEC).
`O=C1Nc2ccc(Cl)cc2C1=Cc1ccc(Br)cc1` [SU4972, 3-(4-Bromobenzylidenyl)-5-chloro-2-indolinone]: the IC50 in experiment [2] is 1.4 µM.
Turning to `CCc1c(C)[nH]c(C=C2C(=O)Nc3ccccc32)c1C` [SU5477, 3-[(4-Ethyl-3,5-dimethylpyrrol-2-yl)methylene]-2-indolinone], the IC50 was found to be 0.05 µM in experiment [1] (Homo sapiens, HUVEC) and 37.8 µM in experiment [2] (Homo sapiens, HUVEC).
With `CN(C)c1ccc(C=C2C(=O)N(C)c3ccccc32)cc1` [SU4952, 3-(4-Dimethylaminobenzylidenyl)-1-methyl-2-indolinone], the IC50 in experiment [1] (Homo sapiens, HUVEC) worked out at 25.6 µM; in experiment [2] (Homo sapiens, HUVEC) it was 19.3 µM.
Turning to `CCc1ccc(C=C2C(=O)Nc3ccccc32)s1` [SU5451, 3-[(2-Ethylthien-5-yl)methylene]-2-indolinone], the IC50 in experiment [1] (Homo sapiens, HUVEC) is 1.2 µM; in experiment [2] (Homo sapiens, HUVEC) it was 30 µM.
In the case of `Cc1c[nH]c(C=C2C(=O)Nc3ccccc32)c1C` [SU5406, 3-[(3,4-Dimethylpyrrol-2-yl)methylene]-2-indolinone], in experiment [1] (Homo sapiens, HUVEC), the IC50 was under 0.8 µM.
